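All cell lines were grown in 96-well plates and treated with compound for 48 hours. The concentration for full growth arrest is given as TGI.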
Key:
Assay in all cases: NCI anticancer screen, dose series, 48 h
IGROV1 ovarian = system: IGROV1 ovarian
UACC-257 melanoma = system: UACC-257 melanoma
COLO 205 colon = system: COLO 205 colon
HCC-2998 colon = system: HCC-2998 colon
SN12C renal = system: SN12C renal
KM12 colon = system: KM12 colon
SK-MEL-5 melanoma = system: SK-MEL-5 melanoma
MALME-3M melanoma = system: MALME-3M melanoma
ACHN renal = system: ACHN renal
SK-OV-3 ovarian = system: SK-OV-3 ovarian
OVCAR-3 ovarian = system: OVCAR-3 ovarian
UO-31 renal = system: UO-31 renal
HCT-116 colon = system: HCT-116 colon
786-0 renal = system: 786-0 renal
SF-295 CNS = system: SF-295 CNS
PC-3 prostate = system: PC-3 prostate
NCI-H226 lung = system: NCI-H226 lung
OVCAR-4 ovarian = system: OVCAR-4 ovarian
CCRF-CEM leukemia = system: CCRF-CEM leukemia
SR leukemia = system: SR leukemia
HCT-15 colon = system: HCT-15 colon
HT29 colon = system: HT29 colon
T-47D breast = system: T-47D breast
SNB-19 CNS = system: SNB-19 CNS
MDA-N = system: MDA-N
DU-145 prostate = system: DU-145 prostate
NCI/ADR-RES ovarian = system: NCI/ADR-RES ovarian
K-562 leukemia = system: K-562 leukemia
SF-268 CNS = system: SF-268 CNS
UACC-62 melanoma = system: UACC-62 melanoma
CAKI-1 renal = system: CAKI-1 renal
LOX IMVI melanoma = system: LOX IMVI melanoma
HL-60(TB) leukemia = system: HL-60(TB) leukemia
NCI-H522 lung = system: NCI-H522 lung
SF-539 CNS = system: SF-539 CNS
SW-620 colon = system: SW-620 colon
SK-MEL-28 melanoma = system: SK-MEL-28 melanoma
NCI-H23 lung = system: NCI-H23 lung
HOP-92 NSCLC = system: HOP-92 NSCLC
MOLT-4 leukemia = system: MOLT-4 leukemia
OVCAR-5 ovarian = system: OVCAR-5 ovarian
HS 578T breast = system: HS 578T breast
MCF7 breast = system: MCF7 breast
RXF 393 renal = system: RXF 393 renal
MDA-MB-231 breast = system: MDA-MB-231 breast
BT-549 breast = system: BT-549 breast
OVCAR-8 ovarian = system: OVCAR-8 ovarian
A549 NSCLC = system: A549 NSCLC
NCI-H460 lung = system: NCI-H460 lung
U251 CNS = system: U251 CNS
MDA-MB-435 = system: MDA-MB-435
SK-MEL-2 melanoma = system: SK-MEL-2 melanoma
TK-10 renal = system: TK-10 renal
M14 melanoma = system: M14 melanoma
HOP-62 NSCLC = system: HOP-62 NSCLC
EKVX NSCLC = system: EKVX NSCLC
RPMI-8226 leukemia = system: RPMI-8226 leukemia
SNB-75 CNS = system: SNB-75 CNS

Question: For `COCOc1cc(OC)ccc1C/C=N/O`, which TGI (IGROV1 ovarian) is on record?
Answer: > 100 µM

Question: And the TGI (UACC-257 melanoma)?
Answer: > 100 µM

Question: What about the TGI (COLO 205 colon) of the same molecule?
Answer: > 100 µM

Question: What about the TGI (HCC-2998 colon) of the same molecule?
Answer: > 100 µM

Question: And the TGI (SN12C renal)?
Answer: > 100 µM

Question: What about the TGI (KM12 colon) of the same molecule?
Answer: > 100 µM

Question: And the TGI (SK-MEL-5 melanoma)?
Answer: > 100 µM

Question: And the TGI (MALME-3M melanoma)?
Answer: > 100 µM

Question: And the TGI (ACHN renal)?
Answer: > 100 µM

Question: What about the TGI (SK-OV-3 ovarian) of the same molecule?
Answer: > 100 µM

Question: And the TGI (OVCAR-3 ovarian)?
Answer: > 100 µM

Question: And the TGI (UO-31 renal)?
Answer: > 100 µM

Question: What about the TGI (HCT-116 colon) of the same molecule?
Answer: > 100 µM

Question: What about the TGI (786-0 renal) of the same molecule?
Answer: > 100 µM

Question: And the TGI (SF-295 CNS)?
Answer: > 100 µM

Question: And the TGI (PC-3 prostate)?
Answer: > 100 µM

Question: And the TGI (NCI-H226 lung)?
Answer: > 100 µM

Question: What about the TGI (OVCAR-4 ovarian) of the same molecule?
Answer: > 100 µM

Question: And the TGI (CCRF-CEM leukemia)?
Answer: > 100 µM

Question: What about the TGI (SR leukemia) of the same molecule?
Answer: > 100 µM

Question: What about the TGI (HCT-15 colon) of the same molecule?
Answer: > 100 µM

Question: And the TGI (HT29 colon)?
Answer: > 100 µM

Question: And the TGI (T-47D breast)?
Answer: > 100 µM

Question: And the TGI (SNB-19 CNS)?
Answer: > 100 µM

Question: What about the TGI (MDA-N) of the same molecule?
Answer: > 100 µM

Question: What about the TGI (DU-145 prostate) of the same molecule?
Answer: > 100 µM

Question: What about the TGI (NCI/ADR-RES ovarian) of the same molecule?
Answer: > 100 µM

Question: And the TGI (K-562 leukemia)?
Answer: > 100 µM

Question: And the TGI (SF-268 CNS)?
Answer: > 100 µM

Question: What about the TGI (UACC-62 melanoma) of the same molecule?
Answer: > 100 µM

Question: And the TGI (CAKI-1 renal)?
Answer: > 100 µM

Question: What about the TGI (LOX IMVI melanoma) of the same molecule?
Answer: > 100 µM

Question: What about the TGI (HL-60(TB) leukemia) of the same molecule?
Answer: > 100 µM

Question: And the TGI (NCI-H522 lung)?
Answer: > 100 µM

Question: And the TGI (SF-539 CNS)?
Answer: > 100 µM

Question: And the TGI (SW-620 colon)?
Answer: > 100 µM

Question: And the TGI (SK-MEL-28 melanoma)?
Answer: > 100 µM

Question: And the TGI (NCI-H23 lung)?
Answer: > 100 µM

Question: And the TGI (HOP-92 NSCLC)?
Answer: > 100 µM

Question: What about the TGI (MOLT-4 leukemia) of the same molecule?
Answer: > 100 µM

Question: What about the TGI (OVCAR-5 ovarian) of the same molecule?
Answer: > 100 µM

Question: And the TGI (HS 578T breast)?
Answer: > 100 µM

Question: What about the TGI (MCF7 breast) of the same molecule?
Answer: > 100 µM

Question: What about the TGI (RXF 393 renal) of the same molecule?
Answer: > 100 µM

Question: What about the TGI (MDA-MB-231 breast) of the same molecule?
Answer: > 100 µM

Question: What about the TGI (BT-549 breast) of the same molecule?
Answer: > 100 µM

Question: And the TGI (OVCAR-8 ovarian)?
Answer: > 100 µM

Question: What about the TGI (A549 NSCLC) of the same molecule?
Answer: > 100 µM

Question: What about the TGI (NCI-H460 lung) of the same molecule?
Answer: > 100 µM

Question: What about the TGI (U251 CNS) of the same molecule?
Answer: > 100 µM

Question: And the TGI (MDA-MB-435)?
Answer: > 100 µM

Question: And the TGI (SK-MEL-2 melanoma)?
Answer: > 100 µM

Question: And the TGI (TK-10 renal)?
Answer: > 100 µM

Question: What about the TGI (M14 melanoma) of the same molecule?
Answer: > 100 µM

Question: And the TGI (HOP-62 NSCLC)?
Answer: > 100 µM

Question: What about the TGI (EKVX NSCLC) of the same molecule?
Answer: > 100 µM

Question: What does the source list for `O=c1oc2ccc(Cl)cc2cc1C1=CSC2=NCCN12`?
Answer: TGI (IGROV1 ovarian): 34 µM; TGI (UACC-257 melanoma): > 100 µM; TGI (COLO 205 colon): 41.5 µM; TGI (HCC-2998 colon): 29.4 µM; TGI (SN12C renal): 32.7 µM; TGI (KM12 colon): 41.3 µM; TGI (SK-MEL-5 melanoma): 34.2 µM; TGI (MALME-3M melanoma): 79.7 µM; TGI (ACHN renal): > 100 µM; TGI (SK-OV-3 ovarian): > 100 µM; TGI (OVCAR-3 ovarian): 35.5 µM; TGI (UO-31 renal): 51.4 µM; TGI (HCT-116 colon): 32 µM; TGI (786-0 renal): 33.4 µM; TGI (SF-295 CNS): 59.1 µM; TGI (PC-3 prostate): 49.2 µM; TGI (OVCAR-4 ovarian): 65.4 µM; TGI (CCRF-CEM leukemia): 47 µM; TGI (SR leukemia): 34.6 µM; TGI (RPMI-8226 leukemia): 44.1 µM; TGI (HCT-15 colon): 41.6 µM; TGI (HT29 colon): 36.3 µM; TGI (T-47D breast): 79.7 µM; TGI (SNB-19 CNS): 67.7 µM; TGI (MDA-N): 47.4 µM; TGI (DU-145 prostate): 36.2 µM; TGI (NCI/ADR-RES ovarian): > 100 µM; TGI (K-562 leukemia): 36.8 µM; TGI (SF-268 CNS): 33.4 µM; TGI (UACC-62 melanoma): 40.4 µM; TGI (CAKI-1 renal): > 100 µM; TGI (LOX IMVI melanoma): 35.1 µM; TGI (HL-60(TB) leukemia): 61 µM; TGI (NCI-H522 lung): 34.5 µM; TGI (SF-539 CNS): 72 µM; TGI (SW-620 colon): 49.1 µM; TGI (SK-MEL-28 melanoma): 80.1 µM; TGI (NCI-H23 lung): 47.4 µM; TGI (HOP-92 NSCLC): 48.3 µM; TGI (MOLT-4 leukemia): 36.4 µM; TGI (OVCAR-5 ovarian): > 100 µM; TGI (HS 578T breast): 93 µM; TGI (MCF7 breast): 40.1 µM; TGI (RXF 393 renal): 49.5 µM; TGI (MDA-MB-231 breast): 40.9 µM; TGI (BT-549 breast): 37.9 µM; TGI (OVCAR-8 ovarian): 38.7 µM; TGI (A549 NSCLC): > 100 µM; TGI (NCI-H460 lung): > 100 µM; TGI (U251 CNS): 56.2 µM; TGI (MDA-MB-435): 57.8 µM; TGI (SK-MEL-2 melanoma): 55.8 µM; TGI (TK-10 renal): 84.4 µM; TGI (M14 melanoma): > 100 µM; TGI (SNB-75 CNS): > 100 µM; TGI (HOP-62 NSCLC): 34.3 µM; TGI (EKVX NSCLC): 51.6 µM

From PubChem BioAssay (NCI)
